Measurements reported in patent US20240190865A1, “T-TYPE CALCIUM CHANNEL ANTAGONISTS AND USES THEREOF” (THE BOARD OF TRUSTEES OF THE LELAND STANFORD JUNIOR …, priority 2021, published 2024).

biological target: Cav3.2 (Homo sapiens (Human), UniProt O95180); assay: In vitro patch clamp assay (SyncroPatch 384PE); format: cell-based; settings: HEK293 cells
Procedure: Patch clamp assays were performed at Charles River. HEK293 cells were cultured in Dulbecco's Modified Eagle Medium/Nutrient Mixture F-12 (D-MEM/F-12) supplemented with 10% fetal bovine serum, 100 U/mL penicillin G sodium, 100 μg/mL streptomycin sulfate and 500 μg/mL G418. Before testing, cells in culture dishes were washed twice with Hank's Balanced Salt Solution, treated with Accutase™ and re-suspended in the culture media (˜20×10^6 cells in 20 mL). Cells in suspension were allowed to recover for 10 minutes in tissue culture incubator set at 37° C. in a humidified 95% air: 5% CO2 atmosphere. Immediately before use in the SyncroPatch 384PE system (SP384PE), the cells were washed twice in extracellular buffer (HB-PS) to remove the culture medium and re-suspended in 20 mL of HB-PS. Extracellular buffer was loaded into the wells of Nanion 384-well Patch Clamp (NPC-384, 4×M) chip (60 μL per well). Then, cell suspension was pipetted into the wells (20 μL per well) of the chip. After establishment of the whole-cell configuration, membrane currents were recorded using patch clamp amplifier in the SP384PE system.

Sequence of Cav3.2 (O95180 whole entry): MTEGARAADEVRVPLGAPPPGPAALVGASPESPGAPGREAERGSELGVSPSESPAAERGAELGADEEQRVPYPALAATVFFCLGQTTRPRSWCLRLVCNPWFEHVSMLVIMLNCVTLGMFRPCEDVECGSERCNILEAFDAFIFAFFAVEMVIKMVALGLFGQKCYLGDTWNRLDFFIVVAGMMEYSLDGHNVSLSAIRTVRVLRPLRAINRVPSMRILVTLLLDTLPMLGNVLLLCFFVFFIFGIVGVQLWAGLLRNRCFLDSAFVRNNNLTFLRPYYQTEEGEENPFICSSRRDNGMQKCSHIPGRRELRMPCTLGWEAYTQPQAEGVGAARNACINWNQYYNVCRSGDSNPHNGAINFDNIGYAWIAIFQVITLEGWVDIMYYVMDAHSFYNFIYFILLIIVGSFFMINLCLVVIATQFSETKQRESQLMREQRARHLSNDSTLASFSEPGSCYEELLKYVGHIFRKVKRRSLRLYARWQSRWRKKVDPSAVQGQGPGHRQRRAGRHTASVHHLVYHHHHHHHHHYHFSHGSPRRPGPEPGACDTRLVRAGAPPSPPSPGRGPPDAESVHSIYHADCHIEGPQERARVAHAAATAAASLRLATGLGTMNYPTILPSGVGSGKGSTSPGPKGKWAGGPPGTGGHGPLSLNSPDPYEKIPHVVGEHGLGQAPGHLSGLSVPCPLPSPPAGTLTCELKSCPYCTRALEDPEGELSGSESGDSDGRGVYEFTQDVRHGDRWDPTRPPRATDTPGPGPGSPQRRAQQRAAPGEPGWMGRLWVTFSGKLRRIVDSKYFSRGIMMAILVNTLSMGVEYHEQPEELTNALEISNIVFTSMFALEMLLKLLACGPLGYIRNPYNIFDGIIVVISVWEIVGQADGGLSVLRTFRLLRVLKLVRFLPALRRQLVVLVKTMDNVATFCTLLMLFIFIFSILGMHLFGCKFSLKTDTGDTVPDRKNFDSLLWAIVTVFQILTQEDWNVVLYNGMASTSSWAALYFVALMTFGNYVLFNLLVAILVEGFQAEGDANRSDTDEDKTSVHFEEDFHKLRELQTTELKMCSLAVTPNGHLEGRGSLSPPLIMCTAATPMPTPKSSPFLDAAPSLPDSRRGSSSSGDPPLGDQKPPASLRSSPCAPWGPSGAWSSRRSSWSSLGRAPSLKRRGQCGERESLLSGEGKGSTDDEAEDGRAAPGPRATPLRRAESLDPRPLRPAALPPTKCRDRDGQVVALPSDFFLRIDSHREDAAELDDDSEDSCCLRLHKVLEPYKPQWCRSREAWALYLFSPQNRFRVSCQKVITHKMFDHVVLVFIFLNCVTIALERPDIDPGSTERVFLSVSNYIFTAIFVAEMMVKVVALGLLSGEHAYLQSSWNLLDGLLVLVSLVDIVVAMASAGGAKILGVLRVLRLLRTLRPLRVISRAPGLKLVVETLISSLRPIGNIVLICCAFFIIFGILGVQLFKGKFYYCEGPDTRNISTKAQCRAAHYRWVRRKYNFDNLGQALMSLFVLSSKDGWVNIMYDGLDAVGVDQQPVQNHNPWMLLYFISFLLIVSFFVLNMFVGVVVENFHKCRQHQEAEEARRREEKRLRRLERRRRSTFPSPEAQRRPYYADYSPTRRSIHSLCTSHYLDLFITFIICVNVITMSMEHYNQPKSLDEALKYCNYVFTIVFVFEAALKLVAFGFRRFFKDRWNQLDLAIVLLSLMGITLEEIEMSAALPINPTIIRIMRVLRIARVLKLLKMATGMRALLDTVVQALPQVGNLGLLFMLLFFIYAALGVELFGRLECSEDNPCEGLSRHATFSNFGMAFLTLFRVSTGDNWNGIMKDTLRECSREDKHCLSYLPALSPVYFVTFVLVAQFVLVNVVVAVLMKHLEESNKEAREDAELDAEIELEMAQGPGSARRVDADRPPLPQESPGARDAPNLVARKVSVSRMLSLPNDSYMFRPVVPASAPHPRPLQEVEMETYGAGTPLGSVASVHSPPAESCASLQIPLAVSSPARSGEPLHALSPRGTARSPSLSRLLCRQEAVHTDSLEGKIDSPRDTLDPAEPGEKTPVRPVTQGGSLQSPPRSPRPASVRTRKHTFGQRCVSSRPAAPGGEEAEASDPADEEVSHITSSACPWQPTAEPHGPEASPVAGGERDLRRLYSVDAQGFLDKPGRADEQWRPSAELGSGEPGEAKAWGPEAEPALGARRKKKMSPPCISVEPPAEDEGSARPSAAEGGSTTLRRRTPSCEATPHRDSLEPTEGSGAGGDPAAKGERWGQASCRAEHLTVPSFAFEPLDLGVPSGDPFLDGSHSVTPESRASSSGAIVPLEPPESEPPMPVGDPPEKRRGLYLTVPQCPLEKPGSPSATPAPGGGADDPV

SMILES	IC50
Cc1noc2cnc([C@@H](C)NC(=O)Cc3ccc(C(C)C)cc3)cc12 [Example 6, (R)-2-(4-isopropylphenyl)-N-(1-(3-methylisoxazolo[5,4-c]pyridin-5-yl)ethyl)acetamide]	7840 nM
C[C@@H](NC(=O)Cc1ccc(C(F)(F)F)cc1)c1cc2cnn(CC(C)(F)F)c2cn1 [Example 40, (R)—N-(1-(1-(2,2-difluoropropyl)-1H-pyrazolo[3,4-c]Pyridin-5-yl)ethyl)-2-(4-(trifluoromethyl)phenyl)acetamide]	827 nM
C[C@@H](NC(=O)Cc1ccc(C2(F)CC2)cc1)c1cc2cnn(CC(F)(F)F)c2cn1 [Example 29, (R)-2-(4-(1-fluorocyclopropyl)phenyl)-N-(1-(1-(2,2,2-trifluoroethyl)-1H-pyrazolo[3,4-c]pyridin-5-yl)ethyl)acetamide]	533 nM
Cc1c(C#N)c2cc(CC(=O)N[C@H](C)c3cc4cnn(CC(F)(F)F)c4cn3)ccc2n1C [Example 54, (R)-2-(3-cyano-1,2-dimethyl-1H-indol-5-yl)-N-(1-(1-(2,2,2-trifluoroethyl)-1H-pyrazolo[3,4-c]pyridin-5-yl)ethyl)acetamide]	529 nM
CCn1ncc2cc([C@@H](C)NC(=O)Cc3ccc(C(C)C)cc3)ncc21 [Example 8, (R)—N-(1-(1-ethyl-1H-pyrazolo[3,4-c]pyridin-5-yl)ethyl)-2-(4-isopropylphenyl)acetamide]	126 nM
CC(C)c1ccc(CC(=O)N[C@H](C)c2cc3cn(C)nc3cn2)cc1 [Example 2, (R)-2-(4-isopropylphenyl)-N-(1-(2-methyl-2H-pyrazolo[3,4-c]pyridin-5-yl)ethyl)acetamide]	6450 nM
CC(C)c1ccc(CC(=O)N[C@H](C)c2cc3cnn(CC(F)(F)F)c3cn2)cc1 [Example 9, (R)-2-(4-isopropylphenyl)-N-(1-(1-(2,2,2-trifluoroethyl)-1H-pyrazolo[3,4-c]pyridin-5-yl)ethyl)acetamide]	44 nM
C[C@@H](NC(=O)Cc1ccc(C2(C(F)F)CC2)nc1)c1cc2cnn(CC(F)(F)F)c2cn1 [Example 21, (R)-2-(6-(1-(difluoromethyl)cyclopropyl)pyridin-3-yl)-N-(1-(1-(2,2,2-trifluoroethyl)-1H-pyrazolo[3,4-c]pyridin-5-yl)ethyl)acetamide]	637 nM
C[C@@H](NC(=O)Cc1ccc(C(C)(F)F)cc1)c1cc2cnn(CC(F)(F)F)c2cn1 [Example 19, (R)-2-(4-(1,1-difluoroethyl)phenyl)-N-(1-(1-(2,2,2-trifluoroethyl)-1H-Pyrazolo[3,4-c]pyridin-5-yl)ethyl)acetamide]	132 nM
C[C@@H](NC(=O)Cc1ccc(C2(C(F)(F)F)CC2)s1)c1cc2cnn(CC(F)(F)F)c2cn1 [Example 17, (R)—N-(1-(1-(2,2,2-trifluoroethyl)-1H-pyrazolo[3,4-c]pyridin-5-yl)ethyl)-2-(5-(1-(trifluoromethyl)cyclopropyl)thiophen-2-yl)acetamide]	292 nM
C[C@@H](NC(=O)Cc1ccc(C2CC2)cc1)c1cc2nnn(CC(F)(F)F)c2cn1 [Example 24, (R)-2-(4-cyclopropylphenyl)-N-(1-(3-(2,2,2-trifluoroethyl)-3H-[1,2,3]triazolo[4,5-c]pyridin-6-yl)ethyl)acetamide]	333 nM

Second part, the compound after the results:

IC50	SMILES
710 nM	CC(C)c1ccc(CC(=O)N[C@H](C)c2cc3cnn(C)c3nn2)cc1 [Example 13, (R)-2-(4-isopropylphenyl)-N-(1-(1-methyl-1H-pyrazolo[3,4-c]pyridazin-5-yl)ethyl)acetamide]
> 10000 nM	C[C@@H](NC(=O)Cc1ccc(C2(C(F)(F)F)CC2)cc1)c1cnc2c(cnn2C)c1 [Example 10, (R)—N-(1-(1-methyl-1H-pyrazolo[3,4-b]pyridin-5-yl)ethyl)-2-(4-(1-(trifluoromethyl)cyclopropyl)phenyl)acetamide]
873 nM	C[C@@H](NC(=O)Cc1cnc(C2CC2)c(Cl)c1)c1cc2cnn(CC(F)(F)F)c2cn1 [Example 36, (R)-2-(5-chloro-6-cyclopropylpyridin-3-yl)-N-(1-(1-(2,2,2-trifluoroethyl)-1H-pyrazolo[3,4-c]pyridin-5-yl)ethyl)acetamide]
194 nM	C[C@@H](NC(=O)Cc1ccc(C2(C(F)F)CC2)cc1)c1cc2cnn(CC(F)(F)F)c2cn1 [Example 22, (R)-2-(4-(1-(difluoromethyl)cyclopropyl)phenyl)-N-(1-(1-(2,2,2-trifluoroethyl)-1H-pyrazolo[3,4-c]pyridin-5-yl)ethyl)acetamide]
7030 nM	C[C@@H](NC(=O)Cc1ccc(C2(C(F)(F)F)CC2)nc1)c1cc2cnn(CC(F)(F)F)c2cn1 [Example 26, (R)—N-(1-(1-(2,2,2-trifluoroethyl)-1H-pyrazolo[3,4-c]pyridin-5-yl)ethyl)-2-(6-(1-(trifluoromethyl)cyclopropyl)pyridin-3-yl)acetamide]
4020 nM	C[C@@H](NC(=O)Cc1ccc(C2CC2)nc1)c1cc2cnn(-c3ccc(F)cc3)c2cn1 [Example 23, (R)-2-(6-cyclopropylnyridin-3-yl)-N-(1-(1-(4-fluorophenyl)-1H-pyrazolo[3,4-c]pyridin-5-yl)ethyl)acetamide]
85 nM	CC(C)c1ccc(CC(=O)N[C@H](C)c2cc3cnn(CC(C)(F)F)c3cn2)cc1 [Example 14, (R)—N-(1-(1-(2,2-difluoropropyl)-1H-pyrazolo[3,4-c]pyridin-5-yl)ethyl)-2-(4-isopropylphenyl)acetamide]
123 nM	C[C@@H](NC(=O)Cc1ccc(C(C)(F)F)c(F)c1)c1cc2cnn(CC(F)(F)F)c2cn1 [Example 38, (R)-2-(4-(1,1-difluoroethyl)-3-fluorophenyl)-N-(1-(1-(2,2,2-trifluoroethyl)-1H-pyrazolo[3,4-c]pyridin-5-yl)ethyl)acetamide]
4900 nM	C[C@@H](NC(=O)Cc1ccc(C2(C(F)(F)F)CC2)nc1)c1ncc(Cl)s1 [Example 58, (R)—N-(1-(5-chlorothiazol-2-yl)ethyl)-2-(6-(1-(trifluoromethyl)cyclopropyl)pyridin-3-yl)acetamide]
868 nM	CC(C)c1ccc(CC(=O)N[C@H](C)c2cc3c(cn2)OC(F)(F)O3)cc1 [Example 57, (R)—N-(1-(2,2-difluoro-[1,3]dioxolo[4,5-c]pyridin-6-yl)ethyl)-2-(4-isopropylphenyl)acetamide]
2130 nM	C[C@@H](NC(=O)Cc1cnc(C(C)(F)F)c(Cl)c1)c1cc2cnn(CC(F)(F)F)c2cn1 [Example 35, (R)-2-(5-chloro-6-(1,1-difluoroethyl)pyridin-3-yl)-N-(1-(1-(2,2,2-trifluoroethyl)-1H-pyrazolo[3,4-c]pyridin-5-yl)ethyl)acetamide]
220 nM	C[C@@H](NC(=O)Cc1ccc(C2(C#N)CC2)cc1)c1cc2cnn(CC(F)(F)F)c2cn1 [Example 47, (R)-2-(4-(1-cyanocyclopropyl)phenyl)-N-(1-(1-(2,2,2-trifluoroethyl)-1H-pyrazolo[3,4-c]pyridin-5-yl)ethyl)acetamide]
9420 nM	Cc1nn(CC(F)(F)F)c2cnc([C@@H](C)NC(=O)Cc3ccc(C(C)C)cc3)cc12 [Example 32, (R)-2-(4-isopropylphenyl)-N-(1-(3-methyl-1-(2,2,2-trifluoroethyl)-1H-pyrazolo[3,4-c]pyridin-5-yl)ethyl)acetamide]
727 nM	C[C@@H](NC(=O)Cc1ccc(C(C)(F)F)cc1)c1cc2cnn(CC(C)(F)F)c2cn1 [Example 41, (R)-2-(4-(1,1-difluoroethyl)phenyl)-N-(1-(1-(2,2-difluoropropyl)-1H-pyrazolo[3,4-c]pyridin-5-yl)ethyl)acetamide]
